Data: patent US8324264B1, “Inhibitors of bacterial biofilms and related methods” (Sequoia Sciences, Inc., priority 2011, dated 2012)
Converted amounts (≈) assume the structure as drawn. Like-named read-outs stand apart in the source and are kept apart here.

What was measured:
E. coli biofilms = assay: Biofilm growth assay (spreading biofilm on semi-solid agar), E. coli; format: cell-based; details: biofilm growth assay, overnight 37° C., vs negative controls, Tables 1-5; for IC85: Escherichia coli, read-out: E. coli: concentration that reduces the area of the spreading biofilm by greater than or equal to 85%
Text: (§1) “Biofilm Growth Assay” refers to an assay performed on semi-solid agar surface where the bacteria collectively move out from an inoculation point. To those skilled in the art, the act of bacteria collectively moving out from an inoculation point on a semi-solid surface may be referred to as swarming or a spreading biofilm. (Anderson, et al Microbiology, 2003, 149, 37-46; Daniels, et al. FEMS Microbiology Reviews, 2004, 28, 261-289). The procedure to perform this assay is described in detail in the Examples. This type of surface motility by bacteria has been reported in the literature by those skilled in the art. […] These references are incorporated herein by reference in their entirety.
(§2) The biofilm growth assay was carried out to measure swarming or biofilm spreading on semi-solid agar media in round plates (for example, 100×15 mm), also referred to as Petri dishes. For E. coli, the plates contained LB medium with 0.6% agar and 0.5% glucose. P. aeruginosa plates were made with M8 agar supplemented with 0.2% glucose, 100 μM CaCl2, 1 mM MgSO4, and 0.5% Casamino acids. The agar plates of this assay consisted of 0.4% to 0.7% agar (Bacto or Noble agar), although other media may also be used as described in the literature and known to those skilled in the art. Test compounds at the desired concentration were added to the cooled, autoclaved media. Portions of the media were then poured into the plates (20 mL/plate), and the plates allowed to dry at room temperature for approximately 3 to 4 hours. Alternatively, however, plates may be dried in a laminar flow hood for approximately fifteen to twenty minutes. Overnight cultures were grown in a 37° C. shaker in LB (E. coli) or TSB (P. aeruginosa). Plates were inoculated by placing 5 μL of the appropriate overnight culture in the centers of the plates. The plates then were incubated overnight at 37° C. The area of the zone of spreading bacteria was then measured and replicates are averaged. Percent inhibition was calculated as 100×(area without compound−area with compound)/(area without compound). An active compound was considered that which reduces the area of the spreading biofilm compared to negative controls by greater than or equal to 85%. The values shown in Table 1 are the concentrations of compounds (μg/ml) tested in the biofilm growth assay that reduce the area of the spreading biofilm compared to negative controls by greater than or equal to 85% unless noted differently in Table 1. A > (“greater than” symbol) as used in Table 1 is well understood to those skilled in the art as an indication that the listed concentration was not effective at this concentration.
(§3) All of the compounds shown in Tables 2, 3, 4, and 5, below, were prepared semi-synthetically from oleanolic acid, except for Compounds 2 and 3. Compound 2 was prepared from ursolic acid. Compound 3 was prepared from hederagenin, but could also be prepared from an oleanolic acid analog with a hydroxyl at C23 or C24. These compounds were tested in the spreading biofilm assay according to the methods detailed in Example I, above. The values shown in Tables 2, 3, 4, and 5 are the concentrations of compounds tested in the biofilm growth assay that reduce the area of the spreading biofilm compared to negative controls by greater than or equal to 85%.

P. aeruginosa biofilms = assay: Biofilm growth assay (spreading biofilm on semi-solid agar), P. aeruginosa; format: cell-based; details: for IC85: Pseudomonas aeruginosa, read-out: P. aeruginosa: concentration that reduces the area of the spreading biofilm by greater than or equal to 85%
Text: as §1, §2, §3

[1] = biofilm growth assay, overnight 37° C., vs negative controls, Tables 1-5

Structure (SMILES) | IC85 (E. coli biofilms) [µg/mL] | IC85 (P. aeruginosa biofilms; [1]) [µg/mL] | E. coli: concentration that reduces the area of the spreading biofilm by greater than or equal to 85% (E. coli biofilms) [µg/mL] | P. aeruginosa: concentration that reduces the area of the spreading biofilm by greater than or equal to 85% (P. aeruginosa biofilms; [1]) [µg/mL] | IC85 (P. aeruginosa biofilms) [µg/mL]
C[C@@H]1CC[C@]2(C(=O)O)CC[C@]3(C)C(=CCC4[C@@]5(C)C[C@H](CO)[C@H](O)C(C)(C)C5CC[C@]43C)C2[C@H]1C (stereo partly drawn) [A] | > 8 | 8 (≈ 16.4 µM) | – | – | –
CC1(C)CC[C@]2(C(=O)O)CC[C@]3(C)C(=C(Cl)CC4[C@@]5(C)Cc6c(n[nH]c6N)C(C)(C)C5CC[C@]43C)C2C1 (stereo partly drawn) [Example 24, (4aS,6aS,6bR,13aR)-12-Amino-15-chloro-2,2,6a,6b,9,9,13a-heptamethyl-2,3,4,4a,5,6,6a,6b,7,8,8a,9,11,13,13a,13b,14,15b-octadecahydro-1H-chryseno[1,2-f]indazole-4-a-carboxylic acid] | 1 (≈ 1.89 µM) | 0.5 (≈ 0.947 µM) | – | – | –
C[C@@H]1CC[C@]2(C)CC[C@]3(C)C(=CCC4[C@@]5(C)CC[C@H](O)C(C)(C)C5CC[C@]43C)C2[C@H]1C (stereo partly drawn) [alpha-Amyrin, reference compound] | – | > 32 | – | – | –
CC1(C)CC[C@]2(c3nnc(S)[nH]3)CC[C@]3(C)C(=CCC4[C@@]5(C)Cc6c(n[nH]c6N)C(C)(C)C5CC[C@]43C)C2C1 (stereo partly drawn) [Compound 75, 5-((4aS,6aS,6bR,13aR)-12-Amino-2,2,6a,6b,9,9,13a-heptamethyl-2,3,4,4a,5,6,6a,6b,7,8,8a,9,11,13,13a,13b,14,15b-octadecahydro-1H-chryseno[1,2-f]indazol-4-a-yl)-4H-1,2,4-triazole-3-thiol] | – | – | 1 | 0.5 | –
CC1(C)CC[C@]2(C(=O)O)CC[C@]3(C)C(=C(c4cccc5cnccc45)CC4[C@@]5(C)Cc6c(n[nH]c6N)C(C)(C)C5CC[C@]43C)C2C1 (stereo partly drawn) [Example 46, (4aS,6aS,6bR,13aR)-12-Amino-15-(isoquinolin-5-yl)-2,2,6a,6b,9,9,13a-heptamethyl-2,3,4,4a,5,6,6a,6b,7,8,8a,9,11,13,13a,13b,14,15b-octadecahydro-1H-chryseno[1,2-f]indazole-4-a-carboxylic acid] | – | – | 1 | 0.5 | –
COc1ccc(C2=C3[C@@H]4CC(C)(C)CC[C@]4(C(=O)O)CC[C@@]3(C)[C@]3(C)CC[C@H]4C(C)(C)c5n[nH]c(N)c5C[C@]4(C)C3C2)cn1 (stereo partly drawn) [Example 42, (4aS,6aS,6bR,8aR,13aR,15bS)-12-Amino-15-(6-methoxypyridin-3-yl)-2,2,6a,6b,9,9,13a-heptamethyl-2,3,4,4a,5,6,6a,6b,7,8,8a,9,11,13,13a,13b,14,15b-octadecahydro-1H-chryseno[1,2-f]indazole-4-a-carboxylic acid] | – | – | 1 | 0.25 | –
CC1(C)CC[C@]2(C(=O)O)CC[C@]3(C)C(=C(c4cccc5c4CCNC5)CC4[C@@]5(C)Cc6c(n[nH]c6N)C(C)(C)C5CC[C@]43C)C2C1 (stereo partly drawn) [Example 47, (4aS,6aS,6bR,13aR)-12-Amino-2,2,6a,6b,9,9,13a-heptamethyl-15-(1,2,3,4-tetrahydroisoquinolin-5-yl)-2,3,4,4a,5,6,6a,6b,7,8,8a,9,11,13,13a,13b,14,15b-octadecahydro-1H-chryseno[1,2-f]indazole-4-a-carboxylic acid] | – | – | 1 | 0.5 | –
CC1(C)CC[C@]2(C(=O)O)CC[C@]3(C)C(=C(c4ccncc4)CC4[C@@]5(C)Cc6c(n[nH]c6N)C(C)(C)[C@@H]5CC[C@]43C)[C@@H]2C1 (stereo partly drawn) [Example 29, (4aS,6aS,6bR,8aR,13aR,15bS)-12-Amino-2,2,6a,6b,9,9,13a-heptamethyl-15-(pyridin-4-yl)-2,3,4,4a,5,6,6a,6b,7,8,8a,9,11,13,13a,13b,14,15b-octadecahydro-1H-chryseno[1,2-f]indazole-4-a-carboxylic acid] | – | – | 1 | 1 | –
CC1(C)CC[C@]2(C(=O)O)CC[C@]3(C)C(=C(c4ccc(N5CCNCC5)nc4)CC4[C@@]5(C)Cc6c(n[nH]c6N)C(C)(C)C5CC[C@]43C)C2C1 (stereo partly drawn) [Example 55, (4aS,6aS,6bR,13aR)-12-Amino-2,2,6a,6b,9,9,13a-heptamethyl-15-(6-(piperazin-1-yl)pyridin-3-yl)-2,3,4,4a,5,6,6a,6b,7,8,8a,9,11,13,13a,13b,14,15b-octadecahydro-1H-chryseno[1,2-f]indazole-4-a-carboxylic acid] | – | – | 2 | >1 | –
C[C@H]1[C@H](C)CC[C@]2(C(=O)O)CC[C@]3(C)C(=CC[C@@H]4[C@@]5(C)CC[C@H](O)C(C)(C)[C@@H]5CC[C@]43C)[C@H]12 [Ursolic acid, ursolic acid, reference compound] | 8 (≈ 17.5 µM) | 8 (≈ 17.5 µM) | – | – | –
CN(C)c1[nH]nc2c1C[C@@]1(C)C(CC[C@]3(C)C1CC=C1C4CC(C)(C)CC[C@]4(C(=O)O)CC[C@]13C)C2(C)C (stereo partly drawn) [J] | > 16 | > 16 | – | – | –
CN(C)c1ccc(C2=C3[C@@H]4CC(C)(C)CC[C@]4(C(=O)O)CC[C@@]3(C)[C@]3(C)CC[C@H]4C(C)(C)c5n[nH]c(N)c5C[C@]4(C)C3C2)cn1 (stereo partly drawn) [Example 44, (4aS,6aS,6bR,8aR,13aR,15bS)-12-Amino-15-(6-(dimethylamino)pyridin-3-yl)-2,2,6a,6b,9,9,13a-heptamethyl-2,3,4,4a,5,6,6a,6b,7,8,8a,9,11,13,13a,13b,14,15b-octadecahydro-1H-chryseno[1,2-f]indazole-4-a-carboxylic acid] | – | – | 2 | 0.5 | –
CC1(C)CC[C@]2(c3n[nH]c(O)c3F)CC[C@]3(C)C(=CCC4[C@@]5(C)Cc6c(n[nH]c6N)C(C)(C)C5CC[C@]43C)C2C1 (stereo partly drawn) [Compound 83, 3-((4aS,6aS,6bR,13aR)-12-Amino-2,2,6a,6b,9,9,13a-heptamethyl-2,3,4,4a,5,6,6a,6b,7,8,8a,9,11,13,13a,13b,14,15b-octadecahydro-1H-chryseno[1,2-f]indazol-4-a-yl)-4-fluoro-1H-pyrazol-5-ol] | – | – | 0.5 | 0.25 | –
CC1(C)CC[C@]2(C(=O)O)CC[C@]3(C)C(=CC[C@@H]4[C@@]5(C)C[C@@H](O)[C@H](O)C(C)(C)[C@@H]5CC[C@]43C)[C@@H]2C1 [Maslinic acid, reference compound] | – | – | – | – | 4 (≈ 8.46 µM)
C[C@H]1[C@H](C)CC[C@]2(C(=O)O)CC[C@]3(C)C(=CC[C@@H]4[C@@]5(C)C[C@@H](O)[C@H](O)C(C)(C)[C@@H]5CC[C@]43C)[C@H]12 [Corosolic acid, reference compound] | – | 4 (≈ 8.46 µM) | – | – | –
